# Laboratory results published in patent publication US10342796B2, “Acrylanilide derivative, preparation method, and applications thereof in pharmacy” (Ancureall Pharmaceutical (Shanghai) Co., Ltd., priority 2015, dated 2019).
# Where two headings read alike, the source gives them in different places.
# Legend:
# Test in all cases: Growth inhibition GI50 in vitro (CCK8/MTT, 72 h)
# Format in all cases: cell-based, human
# [1] = test system: N87 (HER2 Amp); conditions: HER2 positive cell line, range of GI50, read-out: GI50 N87
# [2] = test system: SK-BR-3 (Her2 amp); conditions: HER2 positive cell line, range of GI50, read-out: GI50 SK-BR-3
# Description: Human lung adenocarcinoma cell line Calu-3 (ATCC) was cultured with 1×MEM complete medium (10% FBS, 1% double-antibiotics, 1% NEAA (Gibco), 2 mM glutamine and 1 mM of sodium pyruvate). Human breast cancer cell line SK-BR-3 was cultured with McCOY'S5A complete medium (10% FBS). Human colon cancer cell line SNU1040 (HER2 V777M positive) (ATCC) and human bronchoalveolar adenocarcinoma cell line NCI-H1781 (expressing HER2 exon 20 G776VC mutation) (ATCC) were cultured with 1×RPMI1640 complete medium (10% FBS), respectively.
# (§1) The suspension cells were collected by centrifugation. The supernatant was discard and the cell pellet was resuspended and counted. Different cell concentrations (5˜10×10^4 cells/mL) were prepared according to the growth cycle of each cell line and then seeded on a 96-well plate (Corning), 100 μL/well. The cells were incubated over night at 37° C., 5% CO2. The compounds were added to the cells on the second day with 2 wells in parallel. The final concentration of organic solvent shall not exceed 1%. The cells were continually incubated for 72 h, and then subjected to MTT assay.
# (§2) The present compounds and the reference compounds were dissolved with DMSO (Sigma), respectively. […] The storage concentration of compounds was 10 mM and kept at −20° C. They were diluted by 2 times or 10 times with serial dilution before using.
# (§3) Dojindo CCK8 reagent kit was used as MTT assay. […] FC meter was used as microplate reader.
# (§4) Adherent cell culture medium was discard and immediately replaced with fresh prepared medium which contains 10% CCK8 reagent (100 μL/well). For the suspension cells, CCK8 was directly added to 10% of the final concentration. The cells were continually incubated for 1˜4 h. When the color of control wells turned to dark yellow, the absorption value was measured at OD450 nm. The cell growth rate was calculated according to the following formula: cell growth rate (%)=100*(T−T0)/(C−T0), T=optical density of drug treatment cell well—optical density of blank control well; T0=optical density of cell well before drug treatment—optical density of blank control well; C=optical density of cell well of solvent control group—optical density of blank control well. […] The experiment was independently repeated 1˜3 times, and subject to biological statistical analysis.
# [3] = test system: AU565 (Her2 amp); conditions: HER2 positive cell line, range of GI50, read-out: GI50 AU-565
# [4] = test system: PC-9ER (EGFR delE746-A750/T790M); conditions: EGFR mutant cell line, range of GI50, read-out: GI50 PC9ER
# Description: (§5) PC-9ER is an acquired Erlotinib resistance cell line of PC-9 cells developed by the investor. […] The four cell lines above were cultured with 1×RPMI1640 complete medium (supplement with 10% FBS). Human colon cancer cell line SW48 (EGFR G719S positive, ATCC). was cultured with L15 complete medium (10% FB S).
# as §1, §2, §3, §4
# [5] = test system: H1975 (EGFR L858R/T790M); conditions: EGFR mutant cell line, range of GI50, read-out: GI50 H1975
# Description: as §5, §1, §2, §3, §4
# [6] = test system: HCC827 (EGFR dE746-A750); conditions: EGFR mutant cell line, range of GI50, read-out: GI50 HCC827
# Description: as §5, §1, §2, §3, §4
# [7] = test system: PC-9 (EGFR dE746-A750); conditions: EGFR mutant cell line, range of GI50, read-out: GI50 PC-9
# Description: as §5, §1, §2, §3, §4
# [8] = test system: H460 (EGFR wt, Kras G61H); conditions: EGFR wild type cell line, range of GI50, read-out: GI50 H460
# Excerpt: (§6) EGFR wild type cell lines: human epidermal cancer cell line A431 (EGFR WT, amplification and high expression, from Shanghai Cell Bank of Chinese Academy of Sciences and ATCC), NSCLC cell lines NCI-H460 (EGFR WT, Kras G61H and PI3KCA E545K mutants, ATCC) and NCI-H1299 (EGFR WT, ATCC), melanoma cell line A375 (EGFR WT and BRAF V600E mutant, from Shanghai Cell Bank of Chinese Academy of Sciences, ATCC), human lung cancer cell line NCI-H292 (EGFR WT, from human lung mucoepidermoid carcinoma/lymphatic metastasis, purchased from Shanghai Cell Bank of Chinese Academy of Sciences) were cultured with 1×RPMI1640 complete medium which was supplement with 10% FBS. NSCLC cell line A549 (EGFR WT and Kras G12S mutant, from Shanghai Cell Bank of Chinese Academy of Sciences) was cultured with 1×Ham'S F12K complete medium which was supplement with 10% FBS, 1% double-antibiotics and 2 mM glutamine.
# as §1, §2, §3, §4
# [9] = test system: H1299 (EGFR wt, Nras Q61K); conditions: EGFR wild type cell line, range of GI50, read-out: GI50 H1299
# Excerpt: as §6, §1, §2, §3, §4
# [10] = test system: A549 (EGFR WT); conditions: EGFR wild type cell line, range of GI50, read-out: GI50 A549
# Excerpt: as §6, §1, §2, §3, §4
# [11] = test system: A431 (EGFR WT, amplification and high expression); conditions: EGFR wild type cell line, range of GI50, read-out: GI50 A431
# Excerpt: as §6, §1, §2, §3, §4
"GI50 ([2]; Homo sapiens, SK-BR-3) [nM]","GI50 ([4]; Homo sapiens, PC-9/ER) [nM]","GI50 ([5]; Homo sapiens, NCI-H1975) [nM]","GI50 ([6]; Homo sapiens, HCC827) [nM]",GI50 ([7]; Homo sapiens) [nM],"GI50 ([8]; Homo sapiens, NCI-H460) [nM]","GI50 ([9]; Homo sapiens, NCI-H1299) [nM]","GI50 ([10]; Homo sapiens, A549) [nM]","GI50 ([11]; Homo sapiens, A-431) [nM]",Compound,GI50 ([1]; Homo sapiens) [nM],"GI50 ([3]; Homo sapiens, AU565) [nM]",also measured
10 to 100,10 to 100,10 to 100,< 10,10 to 100,> 1000,> 1000,> 1000,100 to 1000,"C=CC(=O)Nc1cc(Nc2nccc(Nc3cccc(Br)c3)n2)c(OC)cc1N(C)CCN(C)C [Compound 1, N-(5-(4-(3-bromophenylamino)-pyrimidin-2-ylamino)-2-(2-(dimethylamino-ethyl)-methyl-amino)-4-methoxyl-phenyl)-acrylamide]",10 to 100,10 to 100,–
10 to 100,< 10,10 to 100,< 10,< 10,> 1000,> 1000,> 1000,100 to 1000,"C=CC(=O)Nc1cc(Nc2nccc(Nc3cccc(F)c3)n2)c(OC)cc1N(C)CCN(C)C [Compound 3, N-(5-(4-(3-fluoro-phenylamino)-pyrimidin-2-ylamino)-2-(2-(dimethylamino-ethyl)-methyl-amino)-4-methoxyl-phenyl)-acrylamide]",10 to 100,10 to 100,–
–,–,–,–,–,–,–,–,–,"C#Cc1cccc(Nc2ccnc(Nc3cc(NC(=O)C=C)c(N(C)CCN(C)C)cc3OC)n2)c1 [Compound 8, N-(5-(4-(3-acetenyl-phenylamino)-pyrimidin-2-ylamino)-2-(2-(dimethylamino-ethyl)-methyl-amino)-4-methoxyl-phenyl)-acrylamide]",–,–,GI50 [1]: 10 to 100 nM; GI50 [2]: 10 to 100 nM; GI50 [3]: 100 to 1000 nM; GI50 [4]: < 10 nM; GI50 [5]: 10 to 100 nM; GI50 [6]: 10 to 100 nM; GI50 [7]: 10 to 100 nM; GI50 [8]: > 1000 nM; GI50 [9]: > 1000 nM; GI50 [10]: > 1000 nM; GI50 [11]: 100 to 1000 nM
10 to 100,10 to 100,10 to 100,10 to 100,10 to 100,> 1000,> 1000,> 1000,100 to 1000,"C=CC(=O)Nc1cc(Nc2nccc(Nc3ccc(F)c(Cl)c3)n2)c(OC)cc1N(C)CCN(C)C [Compound 13, N-(5-(4-(3-chloro-4-fluorophenyl-amino)-pyrimidin-2-ylamino)-2-(2-(dimethylamino-ethyl)-methyl-amino)-4-methoxyl-phenyl)-acrylamide]",10 to 100,10 to 100,–
100 to 1000,100 to 1000,100 to 1000,10 to 100,10 to 100,> 1000,> 1000,> 1000,> 1000,"C=CC(=O)Nc1cc(Nc2nccc(Nc3cccc(Cl)c3F)n2)c(OC)cc1N(C)CCN(C)C [Compound 14, N-(5-(4-(3-chloro-2-fluorophenyl-amino)-pyrimidin-2-ylamino)-2-(2-(dimethylamino-ethyl)-methyl-amino)-4-methoxyl-phenyl)-acrylamide]",100 to 1000,100 to 1000,–
100 to 1000,10 to 100,10 to 100,10 to 100,10 to 100,> 1000,> 1000,> 1000,> 1000,"C=CC(=O)Nc1cc(Nc2nccc(Nc3cc(OC)c(Cl)cc3Cl)n2)c(OC)cc1N(C)CCN(C)C [Compound 16, N-(5-(4-(2,4-dichloro-5-methoxyphenyl-amino)-pyrimidin-2-ylamino)-2-(2-(dimethylamino-ethyl)-methyl-amino)-4-methoxyl-phenyl)-acrylamide]",100 to 1000,100 to 1000,–
10 to 100,10 to 100,10 to 100,10 to 100,10 to 100,> 1000,> 1000,> 1000,100 to 1000,C=CC(=O)Nc1cc(Nc2nccc(Nc3ccc(OCc4ccccn4)c(Cl)c3)n2)c(OC)cc1N1CCC(N(C)C)CC1 [Compound 28],10 to 100,10 to 100,–
100 to 1000,< 10,10 to 100,10 to 100,10 to 100,> 1000,> 1000,> 1000,100 to 1000,C=CC(=O)Nc1cc(Nc2nccc(N3CCc4ccccc43)n2)c(OC)cc1N(C)CCN(C)C [Compound 31],100 to 1000,100 to 1000,–
100 to 1000,< 10,10 to 100,10 to 100,10 to 100,> 1000,> 1000,> 1000,100 to 1000,C=CC(=O)Nc1cc(Nc2nccc(-n3ccc4ccccc43)n2)c(OC)cc1N(C)CCN(C)C [Compound 32],10 to 100,10 to 100,–
10 to 100,–,< 10,< 10,< 10,–,–,–,100 to 1000,"C=CC(=O)Nc1cc(Nc2ncnc(Nc3cccc(Br)c3)n2)c(OC)cc1N1CCC(N2CCCCC2)CC1 [Compound 119, N-{2-[1,4′]-piperidin-1′-yl-5-[4-(3-bromo-phenylamino)-[1,3,5]triazin-2-amino]-4-methoxyl-phenyl}-acrylamide]",< 10,< 10,–
10 to 100,–,10 to 100,< 10,10 to 100,–,–,–,100 to 1000,"C=CC(=O)Nc1cc(Nc2ncnc(Nc3cccc(Br)c3)n2)c(OC)cc1N1CCCN(C)CC1 [Compound 130, N-[5-[4-(3-bromo-phenylamino)-[1,3,5]triazin-2-ylamino]-4-methoxyl-2-(4-methyl-[1,4]diazepane-1-yl)-phenyl]-acrylamide]",< 10,< 10,–
